Assay results published in US20220298135A1, “5-HETEROARYL-PYRIDIN-2-AMINE COMPOUNDS AS NEUROPEPTIDE FF RECEPTOR ANTAGONISTS” (Domain Therapeutics, priority 2019, published 2022).

Legend:
[1] = target: T1, human NPFFR1 (hNPFFR1) receptor (Homo sapiens, UniProt Q9GZQ6); experiment: Human NPFFR1 evaluation using BRET biosensors (antagonist IC50); format: cell-based; conditions: hNPFFR1 transiently over-expressed in HEK-293 T cells; BRET signal; stimulation by EC80 RFRP-3
T1 construct: expressed in transfected cells; host or cells: HEK-293 T cells, transient co-transfection with polyethylenimine
T1 sequence (Q9GZQ6 whole entry): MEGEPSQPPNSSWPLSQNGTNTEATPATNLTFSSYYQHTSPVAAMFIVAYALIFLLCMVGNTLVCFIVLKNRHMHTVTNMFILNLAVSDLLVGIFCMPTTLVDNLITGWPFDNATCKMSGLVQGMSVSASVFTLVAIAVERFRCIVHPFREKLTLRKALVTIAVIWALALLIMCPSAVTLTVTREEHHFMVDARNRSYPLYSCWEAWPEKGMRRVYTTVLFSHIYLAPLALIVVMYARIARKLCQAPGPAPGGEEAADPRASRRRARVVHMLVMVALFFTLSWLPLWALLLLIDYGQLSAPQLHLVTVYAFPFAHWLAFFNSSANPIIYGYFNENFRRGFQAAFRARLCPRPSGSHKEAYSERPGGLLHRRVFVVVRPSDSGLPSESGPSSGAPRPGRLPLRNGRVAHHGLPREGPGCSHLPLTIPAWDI
Method in brief: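 HEK-293T cells co-transfected with receptor, GαoB and Gi-effector BRET biosensor pair, assayed 48 h later. Compound 10 min, then EC80 RFRP-3 with 10 min luminescence read; IC50 from 20-concentration variable-slope fit, duplicate, two independent experiments.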

Compound	melting point	IC50 [1]
CCc1nc(N)ccc1-c1cccn2ccnc12.Cl [Example 102, 6-ethyl-5-(imidazo[1,2-a]pyridin-8-yl)pyridin-2-amine]	95 to 135 °C	> 1000 nM
CCc1nc(N)ccc1-c1cccc2ccnn12.Cl [Example 104, 6-ethyl-5-(pyrazolo[1,5-a]pyridin-7-yl)pyridin-2-amine]	234 to 243 °C	100 to 1000 nM
CCc1nc(N)ccc1-c1cccc2c1NCCC2.Cl [Example 106, 6-ethyl-5-(1,2,3,4-tetrahydroquinolin-8-yl)pyridin-2-amine]	147 to 160 °C	100 to 1000 nM
CCc1nc(N)ccc1-c1c(F)ccc2cc(-c3ccccc3)cnc12.Cl [Example 107, 6-ethyl-5-(7-fluoro-3-phenylquinolin-8-yl)pyridin-2-amine]	> 250 °C	100 to 1000 nM
CCc1nc(N)ccc1-c1c(F)cc(F)c2cccnc12.Cl [Example 108, 5-(5,7-difluoroquinolin-8-yl)-6-ethylpyridin-2-amine]	126 to 136 °C	< 100 nM
CCc1nc(N)ccc1-c1c(F)c(F)cc2cc(O)cnc12.Cl [Example 112, 8-(6-amino-2-ethylpyridin-3-yl)-6,7-difluoroquinolin-3-ol]	204 to 210 °C	100 to 1000 nM
CCc1nc(N)ccc1-c1cccc2cc3c(nc12)CCCC3.Cl [Example 113, 6-ethyl-5-(5,6,7,8-tetrahydroacridin-4-yl)pyridin-2-amine]	160 to 172 °C	< 100 nM
CCc1nc(N)ccc1-c1cccc2cc3c(nc12)CCN(C)C3.Cl.Cl [Example 114, 6-ethyl-5-(2-methyl-1,2,3,4-tetrahydrobenzo[b][1,6]naphthyridin-6-yl)pyridin-2-amine]	197 to 211 °C	100 to 1000 nM
CCc1nc(N)ccc1-c1cccc2ccc(C3CCCCC3)nc12.Cl [Example 118, 5-(2-cyclohexylquinolin-8-yl)-6-ethylpyridin-2-amine]	137 to 142 °C	< 100 nM
CCc1nc(N)ccc1-c1cccc2ccc(-c3ccccn3)nc12.Cl [Example 119, 6-ethyl-5-(2-(pyridin-2-yl)quinolin-8-yl)pyridin-2-amine]	111 to 116 °C	< 100 nM
CCc1nc(N)ccc1-c1cccc2ccc(-c3ccncc3)nc12.Cl [Example 122, 6-ethyl-5-(2-(pyridin-4-yl)quinolin-8-yl)pyridin-2-amine]	> 250 °C	< 100 nM
CCc1nc(N)ccc1-c1cccc2ccc(-c3cnccc3C)nc12.Cl [Example 127, 6-ethyl-5-(2-(4-methylpyridin-3-yl)quinolin-8-yl)pyridin-2-amine]	180 to 188 °C	< 100 nM
CCc1nc(N)ccc1-c1cccc2ccc(N3CCC(F)(F)CC3)nc12.Cl [Example 132, 5-(2-(4,4-difluoropiperidin-1-yl)quinolin-8-yl)-6-ethylpyridin-2-amine]	120 to 141 °C	< 100 nM
CCc1nc(N)ccc1-c1c(F)ccc2ccc(N3CCCOCC3)nc12.Cl [Example 134, 6-ethyl-5-(7-fluoro-2-(1,4-oxazepan-4-yl)quinolin-8-yl)pyridin-2-amine]	100 to 150 °C	< 100 nM
CCc1nc(N)ccc1-c1c(F)ccc2ccc(N3CCOCC3)nc12.Cl [Example 135, 6-ethyl-5-(7-fluoro-2-morpholinoquinolin-8-yl)pyridin-2-amine]	100 to 146 °C	< 100 nM
CCc1nc(N)ccc1-c1c(F)ccc2ccc(N3CC4CCC(C3)O4)nc12.Cl [Example 136, 5-(2-(8-oxa-3-azabicyclo[3.2.1]octan-3-yl)-7-fluoroquinolin-8-yl)-6-ethylpyridin-2-amine]	140 to 172 °C	< 100 nM
CCc1nc(N)ccc1-c1c(F)ccc2ccc(N3CCCCCC3)nc12.Cl [Example 137, 5-(2-(azepan-1-yl)-7-fluoroquinolin-8-yl)-6-ethylpyridin-2-amine]	110 to 145 °C	< 100 nM
CCc1nc(N)ccc1-c1cccc2ccc(C(=O)N3CCCC3)nc12.Cl [Example 141, (8-(6-amino-2-ethylpyridin-3-yl)quinolin-2-yl)(pyrrolidin-1-yl)methanone]	100 to 125 °C	< 100 nM
CCc1nc(N)ccc1-c1c(F)cc(F)c2cc(F)cnc12.Cl [Example 145, 6-ethyl-5-(3,5,7-trifluoroquinolin-8-yl)pyridin-2-amine]	110 to 120 °C	< 100 nM
CCc1nc(N)ccc1-c1c(F)c(F)cc2cc(F)cnc12.Cl [Example 150, 6-ethyl-5-(3,6,7-trifluoroquinolin-8-yl)pyridin-2-amine]	120 to 130 °C	< 100 nM
CCc1nc(N)ccc1-c1c(C(N)=O)ccc2cccnc12.Cl [Example 152, 8-(6-amino-2-ethylpyridin-3-yl)quinoline-7-carboxamide]	150 to 164 °C	> 1000 nM
CCc1nc(N)ccc1-c1cccc2ccc(=O)[nH]c12.Cl [Example 154, 8-(6-amino-2-ethylpyridin-3-yl)quinolin-2(1H)-one]	> 250 °C	100 to 1000 nM
CCc1nc(N)ccc1-c1cccc2c1NC(=O)CC2.Cl [Example 155, 8-(6-amino-2-ethylpyridin-3-yl)-3,4-dihydroquinolin-2(1H)-one]	233 to 237 °C	100 to 1000 nM
CCc1nc(N)ccc1-c1cccc2ccc(=O)n(C)c12.Cl [Example 156, 8-(6-amino-2-ethylpyridin-3-yl)-1-methylquinolin-2(1H)-one]	132 to 145 °C	> 1000 nM
CCc1nc(N)ccc1-c1c(F)c(F)cc2ccc(O)nc12.Cl [Example 161, 8-(6-amino-2-ethylpyridin-3-yl)-6,7-difluoroquinolin-2(1H)-one]	> 250 °C	100 to 1000 nM

The remaining lines, values ahead:

melting point	IC50 [1]	Compound
115 to 155 °C	> 1000 nM	CCc1nc(N)ccc1-c1cccc2nccn12.Cl [Example 103, 6-ethyl-5-(imidazo[1,2-a]pyridin-5-yl)pyridin-2-amine]
120 to 160 °C	< 100 nM	CCc1nc(N)ccc1-c1c(OC(F)F)ccc2cccnc12.Cl [Example 105, 5-(7-(difluoromethoxy)quinolin-8-yl)-6-ethylpyridin-2-amine]
150 to 180 °C	< 100 nM	CCc1nc(N)ccc1-c1c(C(F)(F)F)ccc2cccnc12.Cl [Example 109, 6-ethyl-5-(7-(trifluoromethyl)quinolin-8-yl)pyridin-2-amine]
150 to 190 °C	< 100 nM	CCc1nc(N)ccc1-c1c(F)c(F)cc2cccnc12.Cl [Example 111, 5-(6,7-difluoroquinolin-8-yl)-6-ethylpyridin-2-amine]
153 to 169 °C	< 100 nM	CCc1nc(N)ccc1-c1cccc2cc3c(nc12)CCC3.Cl [Example 115, 5-(2,3-dihydro-1H-cyclopenta[b]quinolin-5-yl)-6-ethylpyridin-2-amine]
90 to 95 °C	100 to 1000 nM	CCc1nc(N)ccc1-c1cccc2ccc(C3(C)CC3)nc12.Cl [Example 120, 6-ethyl-5-(2-(1-methylcyclopropyl)quinolin-8-yl)pyridin-2-amine]
175 to 185 °C	< 100 nM	CCc1nc(N)ccc1-c1cccc2ccc(C3CCOCC3)nc12.Cl [Example 121, 6-ethyl-5-(2-(tetrahydro-2H-pyran-4-yl)quinolin-8-yl)pyridin-2-amine]
70 to 75 °C	< 100 nM	CCc1nc(N)ccc1-c1cccc2ccc(-c3ccc4nccn4c3)nc12.Cl [Example 123, 6-ethyl-5-(2-(imidazo[1,2-a]pyridin-6-yl)quinolin-8-yl)pyridin-2-amine]
178 to 182 °C	< 100 nM	CCc1nc(N)ccc1-c1cccc2ccc(-c3cnoc3)nc12 [Example 125, 6-ethyl-5-(2-(isoxazol-4-yl)quinolin-8-yl)pyridin-2-amine]
> 250 °C	< 100 nM	CCc1nc(N)ccc1-c1cccc2ccc(-c3cnccn3)nc12.Cl [Example 126, 6-ethyl-5-(2-(pyrazin-2-yl)quinolin-8-yl)pyridin-2-amine]
100 to 150 °C	< 100 nM	CCc1nc(N)ccc1-c1cccc2ccc(N3CCOCC3)nc12.Cl [Example 129, 6-ethyl-5-(2-morpholinoquinolin-8-yl)pyridin-2-amine]
> 250 °C	100 to 1000 nM	CCc1nc(N)ccc1-c1cccc2ccc(N3CCCC3)nc12.Cl [Example 131, 6-ethyl-5-(2-(pyrrolidin-1-yl)quinolin-8-yl)pyridin-2-amine]
50 to 90 °C	< 100 nM	CCc1nc(N)ccc1-c1cccc2ccc(N3CCCOCC3)nc12.Cl [Example 133, 5-(2-(1,4-oxazepan-4-yl)quinolin-8-yl)-6-ethylpyridin-2-amine]
210 to 225 °C	< 100 nM	CCc1nc(N)ccc1-c1cccc2ccc(COC)nc12.Cl [Example 142, 6-ethyl-5-(2-(methoxymethyl)quinolin-8-yl)pyridin-2-amine]
172 to 208 °C	100 to 1000 nM	CCc1nc(N)ccc1-c1c(F)ccc2ccc(=O)[nH]c12.Cl [Example 158, 8-(6-amino-2-ethylpyridin-3-yl)-7-fluoroquinolin-2(1H)-one]
> 250 °C	100 to 1000 nM	CCc1nc(N)ccc1-c1c(F)cc(F)c2ccc(=O)[nH]c12.Cl [Example 159, 8-(6-amino-2-ethylpyridin-3-yl)-5,7-difluoroquinolin-2(1H)-one]
